Molecular target: GLP-1R (Homo sapiens, UniProt P43220)
Experiment: GLP-1R agonist cAMP stimulation assay (HTRF cAMP)
Type: cell-based
Conditions: HEK293 cell line expressing GLP-1 target; HTRF cAMP agonist mode, 30 min at RT
Method: cAMP Detection Kit, Cisbio (Cat #62AM4PEJ)
The cell line was constructed by WuXi.
2. Methods • a) The compound source plate preparation: • The reference 7-37 was diluted from 500 nM, 4-fold, 10 points in DMSO using Bravo. The compounds were diluted from […], 3-fold, 10 points in DMSO using Bravo. • b) Transfer of compounds: • 1) Use Echo transfer 100 nL cpd to the OptiPlate-384 plate. • 2) Spin the plates at 1000 rpm for 5 sec. • c) Cell suspension preparation: • 1) Thaw 1 vial of GLP-1 cells rapidly in 37° C. water bath. • 2) Transfer cell suspension into 10 ml of HBSS in a 15 ml conical tube. • 3) Centrifuge cells at 1000 rpm for 5 min at room temperature to pellet cells • 4) Gently aspirate supernatant being careful not to aspirate cells. • 5) Flick pellet to loose cells and re-suspend the cell pellet in 10 ml HBSS. Use a sterile pipette to pipette up and down to dislodge clumps. • 6) Count cells for concentration and to determine cell viability on Vi-cell. • 7) Re-suspend the GLP-1 cells in assay buffer at a concentration of 1.0×E5/mL cells. • 8) Transfer 10 μL GLP-1 cells to OptiPlate-384 plate. • d) HTRF cAMP Assay for agonist: • 1) Incubate the plate at RT for 30 min before adding the detection reagent. • 2) Add 10 μL each of detection reagent using Electric Multiple Channel Pipette. • 3) Cover the 384 plate with TopSeal-A film and incubate for 60 minutes at room temperature. • Remove the TopSeal-A, read on EnVision.
Create a new log (Inhibitor) vs response—Variable slope mode in Prism5.0 software, substitute the standard curve concentration (x) and its corresponding 665/615 data (y) into the model, convert the standard curve concentration (abscissa) by x=log(x), and make the standard curve through the converted xy.
Transform the data of 665/615 in the whole plate into a column of data, substitute it into y in the table of standard curve concentration (x) and 665/615 data (y), copy the x (interpolatedx) corresponding to automatic conversion by the software into a table, convert it into cAMP level by the formula x=10^(x), and reset the data into 384 distribution.
% Activity=(cAMP level−LC)/(HC−LC)*100% • Z factor: 1-3*(STD_HC+[…])/(HC-LC) • Assay Window: HC/LC • LC: The average cAMP level of adding DMSO wells • HC: The average cAMP level of adding the top concentration of reference compounds wells.
Create a new […] in Prism5.0 software, substitute the sample concentration (x) and its corresponding % Activity data (y) into the model, convert the standard curve concentration (abscissa) to x=log(x), and make the sample curve through the converted xy.

Sequence of GLP-1R (P43220 24-463): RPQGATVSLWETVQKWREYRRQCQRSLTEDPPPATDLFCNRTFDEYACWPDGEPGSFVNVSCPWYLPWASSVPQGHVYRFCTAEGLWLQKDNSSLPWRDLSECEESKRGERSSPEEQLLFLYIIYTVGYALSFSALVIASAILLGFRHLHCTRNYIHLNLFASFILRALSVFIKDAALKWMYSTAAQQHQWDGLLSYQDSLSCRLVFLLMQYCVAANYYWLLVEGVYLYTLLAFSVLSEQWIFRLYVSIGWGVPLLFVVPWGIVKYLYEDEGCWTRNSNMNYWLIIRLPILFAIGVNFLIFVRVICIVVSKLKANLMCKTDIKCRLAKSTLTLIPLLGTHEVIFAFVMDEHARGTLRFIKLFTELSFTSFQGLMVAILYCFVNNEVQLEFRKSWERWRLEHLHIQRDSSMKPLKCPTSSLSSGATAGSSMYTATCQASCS

`C[C@]12C[C@@H](C(=O)O)N(C(=O)CNC(=O)c3ccc4c(c3)nc(CN3CCC(c5cccc(OCc6ccc(Cl)cc6F)n5)CC3)n4C[C@@H]3CCO3)[C@@]1(C)C2` [Compound 55] and `O=C(NCC(=O)N1CC[C@H](O)C1)c1ccc2c(c1)nc(CN1CCC(c3cccc(OCc4ccc(Cl)cc4F)n3)CC1)n2C[C@@H]1CCO1` [Compound 70] are within 1.5-fold of each other in EC50: 1.83 nM for the first, 1.9 nM for the second.

`Cc1cc(C(=O)Nc2ccc3c(c2)nc(CN2CC=C(c4cccc(OCc5ccc(C#N)cc5F)n4)CC2)n3C[C@@H]2CCO2)cc2c(C3CC3)n[nH]c12` [Compound 233] and `Cc1cc(C(=O)Nc2ccc3c(c2)nc(CN2CC=C(c4cccc(OCc5ccc(C#N)cc5F)n4)CC2)n3C[C@@H]2CCO2)cc2c(C(F)F)n[nH]c12` [Compound 228] are within 1.5-fold of each other in EC50: 0.92 nM for the first, 1.26 nM for the second.

`O=C(Nc1ccc2nc(CN3CC=C(c4cccc(OCc5ccc(Cl)cc5F)n4)CC3)n(C[C@@H]3CCO3)c2c1)c1cc(C(F)(F)F)c2c(c1)C1(CC1)C(=O)N2` [Compound 288] and `O=C(Nc1cc(C(F)(F)F)c2c(c1)C1(CC1)C(=O)N2)c1ccc2nc(CN3CC=C(c4cccc(OCc5ccc(Cl)cc5F)n4)CC3)n(C[C@@H]3CCO3)c2c1` [Compound 273] are within 1.5-fold of each other in EC50: 3.87 nM for the first, 2.78 nM for the second.

Going from `Cn1c(=O)[nH]c2ccc(NC(=O)c3ccc4c(c3)nc(CN3CCC(c5cccc(OCc6ccc(Cl)cc6F)n5)CC3)n4C[C@@H]3CCO3)cc21` [Compound 91] to `O=C(Nc1ccc2c(c1)C1(CC1)C(=O)N2)c1ccc2c(c1)nc(CN1CCC(c3cccc(OCc4ccc(Cl)cc4F)n3)CC1)n2C[C@@H]1CCO1` [Compound 86], the EC50 falls from 26.2 nM to 0.75 nM (35-fold).

Compared with `CC(C)c1n[nH]c2ccc(NC(=O)c3ccc4c(c3)nc(CN3CC=C(c5cccc(OCc6ccc(Cl)cc6F)n5)CC3)n4C[C@@H]3CCO3)cc12` [Compound 140], `CCc1n[nH]c2ccc(C(=O)Nc3ccc4c(c3)nc(CN3CC=C(c5cccc(OCc6ccc(C#N)cc6F)n5)CC3)n4C[C@@H]3CCO3)cc12` [Compound 231] is 3.4-fold lower in EC50: 2.97 nM for the first, 0.87 nM for the second.

Compared with `Cc1cc(C(=O)Nc2ccc3c(c2)nc(C2CC24CCN(c2cccc(OCc5ccc(Cl)cc5F)n2)CC4)n3C[C@@H]2CCO2)cc2c1NC(=O)C21CC1` (stereo partly drawn) [Compound 247], `Cc1n[nH]c2c(C(F)(F)F)cc(C(=O)Nc3ccc4c(c3)nc(C3CC35CCN(c3cccc(OCc6ccc(Cl)cc6F)n3)CC5)n4C[C@@H]3CCO3)cc12` (stereo partly drawn) [Compound 253] is 2.4-fold higher in EC50: 0.83 nM for the first, 2.01 nM for the second. The first is the more potent here.

Compared with `Cc1cc(NC(=O)c2ccc3c(c2)nc(CN2CC=C(c4cccc(OCc5ccc(Cl)cc5F)n4)CC2)n3C[C@@H]2CCO2)c(F)c2c(C)n[nH]c12` [Compound 175], `Cc1cc(NC(=O)c2ccc3c(c2)nc(CN2CC=C(c4cccc(OCc5ccc(Cl)cc5F)n4)CC2)n3C[C@@H]2CCO2)cc2nn[nH]c12` [Compound 167] is 1.8-fold lower in EC50: 1.23 nM for the first, 0.68 nM for the second. The second is the more potent here.

`COCCn1c(CN2CCC(c3cccc(OCc4ccc(Cl)cc4F)n3)CC2)nc2cc(NC(=O)c3cc(C)c4[nH]nc(C)c4c3)ccc21` [Compound 260] and `Cc1n[nH]c2ccc(C(=O)Nc3ccc4c(c3)nc(CN3CCC(c5cccc(OCc6ccc(Cl)cc6F)n5)CC3)n4CCOC(F)(F)F)cc12` [Compound 261] are within 1.5-fold of each other in EC50: 1.03 nM for the first, 0.81 nM for the second.

Going from `COC(=O)C1CC(N(C)C)CN1C(=O)[C@H](C)NC(=O)c1ccc2c(c1)nc(CN1CCC(c3cccc(OCc4ccc(Cl)cc4F)n3)CC1)n2C[C@@H]1CCO1` (stereo partly drawn) [Compound 74] to `O=C(NCC(=O)N1CC[C@@H](O)C1)c1ccc2c(c1)nc(CN1CCC(c3cccc(OCc4ccc(Cl)cc4F)n3)CC1)n2C[C@@H]1CCO1` [Compound 77], the EC50 falls from > 10000 nM to 1.9 nM.

Going from `Cc1cc(NC(=O)c2ccc3c(c2)nc(CN2CCC(c4cccc(OCc5ccc(Cl)cc5F)n4)CC2)n3C[C@@H]2CCO2)cc2c(C3CC3)n[nH]c12` [Compound 114] to `Cc1cc(NC(=O)c2ccc3c(c2)nc(CN2CCC(c4cccc(OCc5ccc(Cl)cc5F)n4)CC2)n3C[C@@H]2CCO2)cc2nn[nH]c12` [Compound 194], the EC50 falls from 1.04 nM to 0.33 nM (3.2-fold). The second is the more potent here.

First: COCCn1c(CN2CCC(c3cccc(OCc4ccc(Cl)cc4F)n3)CC2)nc2cc(C(=O)N[C@@H]3CCc4nc(N)sc4C3)ccc21 [Compound 14]
Second: COCCn1c(CN2CCC(c3cccc(OCc4ccc(Cl)cc4F)n3)CC2)nc2cc(C(=O)NCc3ccc(C#N)cc3)ccc21 [Compound 30]
The EC50 of the first is 3.1-fold lower: 447 nM for the first, 1380 nM for the second. The first is the more potent here.

Going from `O=C(Nc1ccc2nc(CN3CC=C(c4cccc(OCc5ccc(Cl)cc5F)n4)CC3)n(C[C@@H]3CCO3)c2c1)c1ccc2[nH]c(=O)[nH]c2c1` [Compound 285] to `Cc1n[nH]c2ccc(C(=O)Nc3ccc4nc(CN5CC=C(c6cccc(OCc7ccc(C#N)cc7F)n6)CC5)n(CC5CCO5)c4c3)cc12` (stereo not drawn) [Compound 290], the EC50 rises from 0.42 nM to 1.2 nM (2.9-fold).

Going from `Cc1cc(NC(=O)c2ccc3c(c2)nc(CN2CCC(c4cccc5c4OC(C)(c4ccc(Cl)cc4F)O5)CC2)n3CC2CCO2)cc2c(C(F)(F)F)n[nH]c12` (stereo not drawn) [Compound 332] to `Cc1cc(-c2cccc3c2OC(C)(c2ccc(Cl)cc2F)O3)cc(F)c1Cc1nc2cc(NC(=O)c3ccc4[nH]nc(C5CC5)c4c3)ccc2n1CC1CCO1` (stereo not drawn) [Compound 324], the EC50 rises from 1.58 nM to 2.95 nM (1.9-fold).

Compared with `Cc1n[nH]c2ccc(NC(=O)c3ccc4c(c3)nc(CN3CC=C(c5cccc(OCc6c(F)cnc7ccccc67)n5)CC3)n4C[C@@H]3CCO3)cc12` [Compound 368], `Cc1cc2c(C#N)ccc(COc3cccc(C4=CCN(Cc5nc6cc(NC(=O)c7ccc8[nH]nc(C)c8c7)ccc6n5C[C@@H]5CCO5)CC4)n3)c2o1` [Compound 358] is 9.4-fold lower in EC50: 9.19 nM for the first, 0.98 nM for the second. The second is the more potent here.

First: O=C(Nc1cnn2[nH]ccc12)c1ccc2c(c1)nc(CN1CC=C(c3cccc(OCc4ccc(Cl)cc4F)n3)CC1)n2C[C@@H]1CCO1 [Compound 401]
Second: O=C(NC1=Nc2nccn2C1)c1ccc2c(c1)nc(CN1CC=C(c3cccc(OCc4ccc(Cl)cc4F)n3)CC1)n2C[C@@H]1CCO1 [Compound 400]
The EC50 of the first is 4.8-fold lower: 21.8 nM for the first, 104 nM for the second.

`Cc1cc(NC(=O)c2ccc3c(c2)nc(CN2CCC(c4cccc(OCc5ccc(C#N)cc5F)n4)CC2)n3C[C@@H]2CCO2)cc2c(C(F)F)n[nH]c12` [Compound 132] and `O=C(Nc1cc(F)c2c(c1)C1(CC1)C(=O)N2)c1ccc2c(c1)nc(CN1CCC(c3cccc(OCc4ccc(Cl)cc4F)n3)CC1)n2C[C@@H]1CCO1` [Compound 104] are within 1.5-fold of each other in EC50: 0.74 nM for the first, 1.05 nM for the second.

First: Cc1n[nH]c2ccc(C(=O)Nc3ccc4c(c3)nc(Cc3cc(F)c(-c5cccc6c5OC(C)(c5ccc(Cl)cc5F)O6)cc3F)n4CC3CCO3)cc12 (stereo not drawn) [Compound 318]
Second: CC(C)c1n[nH]c2ccc(C(=O)Nc3ccc4c(c3)nc(CN3CC=C(c5cccc6c5OC(C)(c5ccc(C#N)cc5F)O6)CC3)n4CC3CCO3)cc12 (stereo not drawn) [Compound 311]
The EC50 of the first is 3.9-fold higher: 1.53 nM for the first, 0.39 nM for the second.

First: COCCn1c(CN2CCC(c3cccc(OCc4ccc(Cl)cc4F)n3)CC2)nc2cc(C(=O)NCCCc3ccc(O)cc3)ccc21 [Compound 25]
Second: O=C(N[C@@H](Cc1cnc[nH]1)C(=O)O)c1ccc2c(c1)nc(CN1CCC(c3cccc(OCc4ccc(Cl)cc4F)n3)CC1)n2C[C@@H]1CCO1 [Compound 53]
The EC50 of the first is 6.6-fold higher: 756 nM for the first, 114 nM for the second. The second is the more potent here.

Going from `Cc1n[nH]c2c(C)cc(NC(=O)c3ccc4c(c3)nc(CN3CC=C(c5cccc(OCc6ccc(Cl)cn6)n5)CC3)n4C[C@@H]3CCO3)cc12` [Compound 165] to `Cc1n[nH]c2ncc(C(=O)Nc3ccc4c(c3)nc(CN3CC=C(c5cccc(OCc6ccc(Cl)cc6F)n5)CC3)n4C[C@@H]3CCO3)nc12` [Compound 238], the EC50 rises from 0.88 nM to 11.9 nM (14-fold). The first is the more potent here.

With `Cc1cc2c(C#N)ccc(COc3cccc(C4CCN(Cc5nc6cc(NC(=O)c7ccc8[nH]nc(C(F)(F)F)c8c7)ccc6n5C[C@@H]5CCO5)CC4)n3)c2o1` [Compound 371] the EC50 was 3.19 nM.
